The target of test [1] is CrufCSP1. Description: Fluorescence competitive binding assay with 1-NPN as probe. Set-up: species or system Cotesia ruficrus. Particulars: for IC50: recombinant CrufCSP1 2 μM, ligand 0 to 30 μM, tris-HCl pH 7.4. As to the method: (§1) The binding affinity between CrufCSP1 and the selected volatile compounds was determined using an F-7000 fluorescence spectrophotometer (Hitachi, Tokyo, Japan). N-phenyl-1-naphthylamine (1-NPN), a fluorescence probe, was used to assess the binding affinity. A total of 24 volatiles, i.e., alcohols (heptanol, undecanol, tetradecanol, cis-3-hexen-1-ol, 1,14-tetradecanediol, 2-hexanol, phytol, and linalool), aldehydes (hexanal, heptanal, octanal, nonanal, decanal, dodecanal, pentadecanal, benzaldehyde, p-methyl benzaldehyde, and trans-2-hexenal), and others (2-hydroxy-5-methylacetophenone, 2-heptanone, palmitic acid, N,N-dimethylcaprylamide, DMNT, and cis-3-hexenyl acetate), were selected for the fluorescence binding assay with CrufCSP1. Of these compounds, our research group previously identified undecanol, tetradecanol, 2-hexanol, 1,14-tetradecanediol, phytol, dodecanal, pentadecanal, p-methyl benzaldehyde, palmitic acid, 2-hydroxy-5-methylacetophenone, and N,N-dimethylcaprylamide in the larvae of S. frugiperda. The remaining compounds were chosen based on previous studies that identified them as corn volatiles.
To prepare the tested chemicals, all were dissolved in chromatographic grade methanol to achieve a 100 mM solution, which was then stored at −20 °C. Before use, this solution was diluted to 1 mM. CrufCSP1 was dissolved in 20 mM of tris-HCl (pH 7.4) and then diluted to a 2 μM working solution. To ensure the binding affinity of 1-NPN to the protein, the CrufCSP1 solution was titrated with 1-NPN with a concentration range of 2 to 20 μM. For the fluorescence competitive binding assays, each ligand was added to a mixture containing CrufCSP1 (2 μM) and 1-NPN (2 μM) at concentrations ranging from 0 to 30 μM. The maximum fluorescence intensity was then recorded and plotted against the ligand concentration based on the average of the three repeats. The dissociation constant (Kd) for binding between CrufCSP1 and 1-NPN was calculated using the Scatchard linear regressive equation in the software GraphPad Prism 8.0 (GraphPad Software Inc., La Jolla, CA, USA). Additionally, the ligand-binding affinity (Ki) was calculated utilizing the following equation: Ki=[IC50]/(1+[1−NPN]/K1−NPN) where IC50 represents the maximum concentration at which the ligand replaces 50% of the 1 − NPN fluorescence, [1 − NPN] denotes the free concentration of 1-NPN, and K1-NPN represents the dissociation constant of the protein/1 − NPN complex.

Test [2] addresses CrufCSP1. Description: Binding of fluorescent probe 1-NPN to recombinant CrufCSP1 (Scatchard plot). Particulars: CrufCSP1 2 μM titrated with 1-NPN 2 to 20 μM, read-out: dissociation constant toward 1-NPN. Also on record: species or system Cotesia ruficrus. As to the method:
as §1, with “Of these compounds, our research group previously identified undecanol, tetradecanol, 2-hexanol, 1,14-tetradecanediol, phytol, dodecanal, pentadecanal, p-methyl benzaldehyde, palmitic acid, 2-hydroxy-5-methylacetophenone, and N,N-dimethylcaprylamide in the larvae of S. frugiperda. The remaining compounds were chosen based on previous studies that identified them as corn volatiles.” left out
To prepare the tested chemicals, all were dissolved in chromatographic grade methanol to achieve a 100 mM solution, which was then stored at −20 °C. […] For the fluorescence competitive binding assays, each ligand was added to a mixture containing CrufCSP1 (2 μM) and 1-NPN (2 μM) at concentrations ranging from 0 to 30 μM. The maximum fluorescence intensity was then recorded and plotted against the ligand concentration based on the average of the three repeats. […]

[3] abbreviates: calculated from IC50: Ki=[IC50]/(1+[1-NPN]/K1-NPN), CrufCSP1 2 μM, 1-NPN 2 μM.

Among the data in paper PMC10744196, “Characterization of CrufCSP1 and Its Potential Involvement in Host Location by Cotesia ruficrus (Hymenoptera: Braconidae), an Indigenous Parasitoid of Spodoptera frugiperda (Lepidoptera: Noctuidae) in China” (Insects, 2023) are Ki, IC50 and Kd values, retold here.

Read-outs that look alike come from different tables or passages of the source.

One may read the Ki as the equilibrium dissociation constant of an inhibitor or competing ligand from its target. For orientation: IC50 means the point on the concentration scale where inhibition reaches its midpoint. With `OCCCCCCCCCCCCCCO` [1,14-Tetradecanediol], on CrufCSP1 [1] (setting [3]), the Ki was greater than 50 µM. Further, the IC50 at CrufCSP1 [1] (1-NPN 2 μM) is greater than 50 µM.

With `c1ccc(Nc2cccc3ccccc23)cc1` [1-NPN, N-phenyl-1-naphthylamine], at CrufCSP1 [2], the Kd amounted to 7.67 µM.

Take `CCCCCC(C)=O` [2-Heptanone]: the Ki on CrufCSP1 [1] (setting [3]) is greater than 50 µM. For the same compound, the IC50 on CrufCSP1 [1] (1-NPN 2 μM) was greater than 50 µM.

In the case of `CCCCC(C)O` (centres unmarked) [2-Hexanol], on CrufCSP1 [1] (setting [3]), the Ki is greater than 50 µM. Further, the IC50 on CrufCSP1 [1] (1-NPN 2 μM) was greater than 50 µM.

For `CC(=O)c1cc(C)ccc1O` [2-Hydroxy-5-methylacetophenone], the Ki was 20 µM on CrufCSP1 [1] (setting [3]) and less than 20 µM on CrufCSP1 [1] (calculated from IC50: Ki=[IC50]/(1+[1-NPN]/K1-NPN), CrufCSP1 2 μM, 1-NPN 2 μM, listed as 2-hydroxy-5-methylacetophenone). The IC50 on CrufCSP1 [1] (1-NPN 2 μM) was found to be 22.8 µM.

In the case of `O=Cc1ccccc1` [Benzaldehyde], the Ki on CrufCSP1 [1] was 15.2 µM; on CrufCSP1 [1] (listed as benzaldehyde) it was less than 20 µM. Moreover, the IC50 at CrufCSP1 [1] (1-NPN 2 μM) is 17.4 µM.

As for `C=C/C=C(\C)CCC=C(C)C` [DMNT], the Ki at CrufCSP1 [1] is greater than 50 µM. In addition, the IC50 at CrufCSP1 [1] (1-NPN 2 μM) is greater than 50 µM.

Turning to `CCCCCCCCCC=O` [Decanal], the Ki at CrufCSP1 [1] (setting [3]) is 21.8 µM. In addition, the IC50 on CrufCSP1 [1] (1-NPN 2 μM) was 24.9 µM.

In the case of `CCCCCCCCCCCC=O` [Dodecanal], at CrufCSP1 [1] (setting [3]), the Ki was 36 µM. The IC50 on CrufCSP1 [1] (1-NPN 2 μM) stood at 41.1 µM.

Take `CCCCCCC=O` [Heptanal]: the Ki at CrufCSP1 [1] (setting [3]) was greater than 50 µM. Besides, the IC50 on CrufCSP1 [1] (1-NPN 2 μM) was greater than 50 µM.

For `CCCCCCCO` [Heptanol], at CrufCSP1 [1] (setting [3]), the Ki is 27.7 µM. The concentration for half-maximal inhibition (IC50) at CrufCSP1 [1] (1-NPN 2 μM) stood at 31.6 µM.

On to `CCCCCC=O` [Hexanal], for which the Ki was 19.4 µM on CrufCSP1 [1] (setting [3]) and less than 20 µM at CrufCSP1 [1] (calculated from IC50: Ki=[IC50]/(1+[1-NPN]/K1-NPN), CrufCSP1 2 μM, 1-NPN 2 μM, listed as hexanal). Further, the IC50 on CrufCSP1 [1] (1-NPN 2 μM) came to 22.1 µM.

As for `C=CC(C)(O)CCC=C(C)C` (centres unmarked) [Linalool], the Ki on CrufCSP1 [1] (setting [3]) was 19.8 µM; on CrufCSP1 [1] (calculated from IC50: Ki=[IC50]/(1+[1-NPN]/K1-NPN), CrufCSP1 2 μM, 1-NPN 2 μM, listed as linalool), less than 20 µM. For the same compound, the IC50 at CrufCSP1 [1] (1-NPN 2 μM) is 22.6 µM.

Turning to `CCCCCCCC(=O)N(C)C` [N,N-Dimethylcaprylamide], the Ki at CrufCSP1 [1] (setting [3]) was 19.3 µM; at CrufCSP1 [1] (calculated from IC50: Ki=[IC50]/(1+[1-NPN]/K1-NPN), CrufCSP1 2 μM, 1-NPN 2 μM, listed as N,N-dimethylcaprylamide), less than 20 µM. Also, the IC50 at CrufCSP1 [1] (1-NPN 2 μM) was determined as 22 µM.

`CCCCCCCCC=O` [Nonanal]: on CrufCSP1 [1] (setting [3]), the Ki was greater than 50 µM. In addition, at CrufCSP1 [1] (1-NPN 2 μM), the IC50 was greater than 50 µM.

As for `CCCCCCCC=O` [Octanal], the Ki at CrufCSP1 [1] (setting [3]) is 15 µM; at CrufCSP1 [1] (calculated from IC50: Ki=[IC50]/(1+[1-NPN]/K1-NPN), CrufCSP1 2 μM, 1-NPN 2 μM, listed as octanal), less than 20 µM. Further, the IC50 at CrufCSP1 [1] (1-NPN 2 μM) stood at 17.2 µM.

`CCCCCCCCCCCCCCCC(=O)O` [Palmitic acid]: the Ki on CrufCSP1 [1] (setting [3]) was greater than 50 µM. Further, the IC50 on CrufCSP1 [1] (1-NPN 2 μM) was greater than 50 µM.

`CCCCCCCCCCCCCCC=O` [Pentadecanal] came in with a Ki on CrufCSP1 [1] of 39 µM. Further, the IC50 at CrufCSP1 [1] (1-NPN 2 μM) is 44.5 µM.

Take `CCCCCCCCCCCCCCO` [Tetradecanol]: at CrufCSP1 [1] (setting [3]), the Ki is greater than 50 µM. In addition, the IC50 on CrufCSP1 [1] (1-NPN 2 μM) was greater than 50 µM.

For `CCCCCCCCCCCO` [Undecanol], at CrufCSP1 [1] (setting [3]), the inhibitory constant (Ki) was greater than 50 µM. Further, on CrufCSP1 [1] (1-NPN 2 μM), the IC50 was greater than 50 µM.

With `CC/C=C\CCO` [cis-3-Hexen-1-ol], the Ki on CrufCSP1 [1] (setting [3]) was 24.7 µM. Moreover, the IC50 on CrufCSP1 [1] (1-NPN 2 μM) amounted to 28.2 µM.

For the compound `CC/C=C\CCOC(C)=O` [cis-3-Hexenyl acetate], the Ki on CrufCSP1 [1] (setting [3]) was 29.2 µM. Moreover, the IC50 at CrufCSP1 [1] (1-NPN 2 μM) is 33.4 µM.

As for `Cc1ccc(C=O)cc1` [p-Methyl benzaldehyde], the Ki on CrufCSP1 [1] came out at 40.3 µM. Besides, the IC50 on CrufCSP1 [1] (1-NPN 2 μM) turned out to be 46 µM.

As for `CCC/C=C/C=O` [trans-2-Hexenal], the Ki at CrufCSP1 [1] is 14.5 µM; on CrufCSP1 [1] (listed as trans-2-hexenal) it was less than 20 µM. In addition, on CrufCSP1 [1] (1-NPN 2 μM), the IC50 was determined as 16.5 µM.

Phytol registered a Ki on CrufCSP1 [1] greater than 50 µM. Moreover, the IC50 at CrufCSP1 [1] (1-NPN 2 μM) was greater than 50 µM.
